Measured values as given in patent publication US10485772B2, “Compositions for modulating cancer stem cells and uses therefor” (University of Canberra, priority 2014, dated 2019).

Tested on: MCF-7 cells (mammospheres)
Assay: Mammosphere assay in MCF-IM model
Format: cell-based, human
Details: bisindolylmaleimide-I 1 μM for 1 hr prior to PMA for 6 days
Experimental: The following mammosphere culture media components were purchased from StemCell Technologies Inc., BC, Canada: Mammocult Basal medium (Human) (catalogue number-05621), Mammocult Proliferation Supplements (Human) (catalogue number-05622), heparin (catalogue number-07904) and hydrocortisone (catalogue number-[…]). Hydrocortisone powder was freshly dissolved into mammocult basal medium to get 10^−4M solution on the day of experiment. 50 mL of
Mammocult complete media was then prepared by addition of 45 mL Mammocult basal medium, 5 mL mammocult proliferation supplements, 100 μL of the 0.2% heparin stock, 500 μL of 10^−4M stock of hydrocortisone and 50 μL of the PNS. Mammocult complete media was either used on same day or stored for not more than 7 days at 4° C.
MCF-7 cells were grown in a 175 cm^2 cell culture flask and harvested using a cell scraper (Zellschaber, Switzerland) or FACS sorted as specified below. Importantly trypsin treatment was never used for harvesting cells as it interferes with the mammosphere assay. Harvested cells were then re-suspended in 1 mL mammocult complete media and centrifuged at 500×g for 3 minutes at 20° C. The cell pellet was then re-suspended in 1 mL mammocult complete media before counting the cells on the Vi-CELL counter. Cell dilutions were then prepared to stain 40,000 cells/2 mL and 2 mL of cells were seeded in the 6 well-ultra low adherent, flat bottom plates (Costar, Corning Inc, Corning, N.Y., USA). Cells were either stimulated or not treated according to the experimental protocol and incubated at 37° C., under 5% CO2 for 7 days in a Hepa-Filtered Infrared (IR) Incubator (Forma Scientific Inc., Materietta, Ohio). Mammospheres larger than 60 μm were counted per well on day 7 and pictures were taken with an Olympus microscope. All the mammosphere assays were performed in duplicate wells and the entire procedure was repeated at least twice.
Mammosphere culture media components were purchased from StemCell Technologies and mammosphere assays were performed as recommended by the manufacturer's guidelines. Briefly, 40,000 cells/2 ml cell dilutions were then prepared and 2 ml of cells were seeded in the 6 well-ultralow adherent, flat bottom plates (Costar). Mammospheres larger than 60 μm were counted per well on day 7 and pictures were taken.

For `CN(C)CCCn1cc(C2=C(c3c[nH]c4ccccc34)C(=O)NC2=O)c2ccccc21` [bisindolylmaleimide-I], the mammosphere formation was “reduce mammosphere formation” and the mammosphere formation (listed as Broad spectrum PKC pathway inhibitor) was “inhibition of EMT and CSC formation”.
